For assay [1], the target named is S. typhimurium QAPRTase (quinolinate phosphoribosyltransferase) (Salmonella enterica, UniProt P30012, D236A). Kind of assay: biochemical.
Assay [2] has as its target S. typhimurium QAPRTase (quinolinate phosphoribosyltransferase) (Salmonella enterica, UniProt P30012). Kind of assay: stopped-flow tryptophan fluorescence. Type of assay: binding.
Assay [3] deals with S. typhimurium QAPRTase (quinolinate phosphoribosyltransferase) (Salmonella enterica, UniProt P30012, E215A). Kind of assay: biochemical.
The target of assay [4] is S. typhimurium QAPRTase (quinolinate phosphoribosyltransferase) (Salmonella enterica, UniProt P30012, E215Q). Kind of assay: biochemical.
For assay [5], the target named is S. typhimurium QAPRTase (quinolinate phosphoribosyltransferase) (Salmonella enterica, UniProt P30012, K285A). Kind of assay: biochemical.
Assay [6] concerns the target S. typhimurium QAPRTase (quinolinate phosphoribosyltransferase) (Salmonella enterica, UniProt P30012, E215D). Kind of assay: biochemical.
For assay [7], the target named is S. typhimurium QAPRTase (quinolinate phosphoribosyltransferase) (Salmonella enterica, UniProt P30012, K154A). In words: biochemical.

Structures are written as SMILES.

We go through one compound from PMC2891058 (Biochemistry, 2010).

For orientation: Kd means the equilibrium constant for the complex coming apart. A low value points to a tighter complex.

For `O=P(O)(O)OC[C@H]1O[C@H](OP(=O)(O)OP(=O)(O)O)[C@H](O)[C@@H]1O` [PRPP], the Kd was 127 ± 25 µM in assay [1]; 53 µM in assay [2]; 770 ± 200 µM in assay [3]; 113 ± 24 µM in assay [4]; around 1000 µM in assay [5]; 417 ± 76 µM in assay [6]. The compound further registered a Kd in assay [7] above 1000 µM.
